Experimental data as given in patent US20200190136A1, “METHODS FOR GENERATING SMALL MOLECULE DEGRADERS AND DIMERIZERS” (DANA-FARBER CANCER INSTITUTE, INC., priority 2017, published 2020).
“Also recorded” adds a separate entry of the source.

Key:
[1] = tested on: BRD4BD1 and BRD4BD2; conditions: Filippakopoulos, Qi et al. 2010; cited from earlier work
[2] = tested on: BRD2BD1, BRD2BD2, BRD3BD1, BRD3BD2, BRD4BD1, BRD4BD2; assay: EGFP/mCherry reporter cellular degradation across individual BET bromodomains; assay type: cell-based, human; conditions: for degradation activity across BET bromodomains: individual bromodomains of BRD2, BRD3, BRD4; for selectivity of BRD4 degradation over BRD2 and BRD3: EGFP/mCherry reporter assay
Protocol: (§1) Stable cell lines expressing eGFP-protein fusion and mCherry reporter were generated using Flip-In 293 system. Plasmid (0.3 μg) and pOG44 (4.7 μg) DNA were preincubated in 100 μL of Opti-MEM I (Gibco, Life Technologies) media containing 0.05 mg/ml Lipofectamine 2000 (Invitrogen) for 20 min and added to Flip-In 293 cells containing 1.9 ml of DMEM media (Gibco, Life Technologies) per well in a 6-well plate format (Falcon, 353046). Cells were propagated after 48 h and transferred into a 10 cm^2 plate (Corning, 430165) in DMEM media containing 50 μg/ml of Hygromycin B (REF 10687010, Invitrogen) as a selection marker. Following 2-3 passage cycle FACS (FACSAria II, BD) was used to enrich for cells expressing eGFP and mCherry.
(§2) Cells were seeded at 30-50% confluency in either 24, 48 or 96 well plates (3524, 3548, 3596 respectively, Costar) a day before compound treatment. Titrated compounds were incubated with cells for 5 h following trypsinisation and resuspention in DMEM media, transferred into 96-well plates (353910, Falcon) and analyzed by flow cytometer (guava easyCyte HT, Millipore). Signal from 5000 cells per well was acquired in singlicate or duplicate and the eGFP and mCherry florescence monitored. Data was analyzed using FlowJo (FlowJo, LCC). […] The eGFP protein abundance relative to mCherry was then quantified as a ten-fold amplified ratio for each individual cell using the formula: 10×eGFP/mCherry. The median of the ratio was then calculated per set, normalized to the median of the DMSO ratio, and is denoted as relative abundance. Standard deviation is calculated from four replicates (n=4) unless described otherwise.

[3] = biological target: T1, IKZF1Δ-CRBN (Homo sapiens, UniProt Q13422+Q96SW2, DEL197-239); assay: TR-FRET CRBN-IKZF1Δ binding assay
T1 construct: made in house; host or cells: Trichoplusia ni High-Five insect cells (baculovirus)
T1 sequence (Q96SW2 whole entry, stated change not applied): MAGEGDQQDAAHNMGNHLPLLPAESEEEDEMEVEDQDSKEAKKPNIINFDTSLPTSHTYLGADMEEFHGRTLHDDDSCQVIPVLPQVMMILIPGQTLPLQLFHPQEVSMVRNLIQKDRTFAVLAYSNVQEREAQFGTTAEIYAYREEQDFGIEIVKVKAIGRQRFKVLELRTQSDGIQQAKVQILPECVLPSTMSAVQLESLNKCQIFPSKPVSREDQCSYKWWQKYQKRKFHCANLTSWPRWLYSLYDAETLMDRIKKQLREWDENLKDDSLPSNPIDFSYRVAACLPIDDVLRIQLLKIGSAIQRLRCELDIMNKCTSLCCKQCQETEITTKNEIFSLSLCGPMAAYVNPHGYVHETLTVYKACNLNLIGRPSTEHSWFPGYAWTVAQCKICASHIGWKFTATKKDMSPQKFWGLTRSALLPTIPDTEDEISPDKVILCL
T1 sequence (Q13422 with tags, fused parts or gaps DEL197-239): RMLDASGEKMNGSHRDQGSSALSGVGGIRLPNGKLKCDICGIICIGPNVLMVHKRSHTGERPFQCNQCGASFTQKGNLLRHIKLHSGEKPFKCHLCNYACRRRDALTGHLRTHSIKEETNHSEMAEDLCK
Protocol: Before TR-FRET measurements were conducted, the reactions were incubated for 15 min at RT. After excitation of terbium fluorescence at 337 nm, emission at 490 nm (terbium) and 520 nm (BODIPY) were recorded with a 70 μs delay over 600 μs to reduce background fluorescence and the reaction was followed over 30 200 second cycles of each data point using a PHERAstar FS microplate reader (BMG Labtech). The TR-FRET signal of each data point was extracted by calculating the 520/490 nm ratio. The heterobifunctional nature of small molecule degraders results in a three-body binding equilibrium complicated by potential cooperativity or avidity effects arising from protein-protein interactions (Douglass, Miller et al. 2013), all of which precludes direct interpretation of the binding data. […] The peak height of TR-FRET dBET dose response data was calculated in GraphPad Prism 7 using Area Under Curve analysis for three independent replicates (n=3) and the mean peak height and standard deviation calculated.
The standard deviation in IKZF1A TR-FRET compound titrations was calculated from three biological replicates (n=3) as an average of 5 technical replicates per well per experiment, or as an average of 5 technical replicates of single experiment for unlabelled protein titrations.

[4] = biological target: T2, BRD4BD1 (Homo sapiens, UniProt O60885); assay: BRD4BD1-EGFP/mCherry reporter cellular degradation assay (flow cytometry); assay type: cell-based; conditions: BRD4BD1-EGFP reporter cells
T2 construct: expressed in transfected cells
Protocol: as §1, with “Following 2-3 passage cycle FACS (FACSAria II, BD) was used to enrich for cells expressing eGFP and mCherry.” left out
as §2, with “The median of the ratio was then calculated per set, normalized to the median of the DMSO ratio, and is denoted as relative abundance.” left out

[5] = tested on: BRD2; assay: BRD2 bromodomain EGFP/mCherry reporter cellular degradation assay; assay type: cell-based, human; conditions: BRD2 bromodomain reporter cells
Protocol: as §1, with “Following 2-3 passage cycle FACS (FACSAria II, BD) was used to enrich for cells expressing eGFP and mCherry.” left out
as §2, with “The median of the ratio was then calculated per set, normalized to the median of the DMSO ratio, and is denoted as relative abundance.” left out

[6] = tested on: BRD3; assay: BRD3 bromodomain EGFP/mCherry reporter cellular degradation assay; assay type: cell-based, human; conditions: BRD3 bromodomain reporter cells
Protocol: as §1, with “Following 2-3 passage cycle FACS (FACSAria II, BD) was used to enrich for cells expressing eGFP and mCherry.” left out
as §2, with “The median of the ratio was then calculated per set, normalized to the median of the DMSO ratio, and is denoted as relative abundance.” left out

[7] = biological target: T3, BRD4 (Homo sapiens, UniProt O60885); assay: Western blot of endogenous BRD4 in HEK293T cells; assay type: cell-based; conditions: 5 hours, immunoblot
T3 construct: retains activity on endogenous full length BRD4; endogenous in cells; host or cells: HEK293T
Protocol: (§3) HEK293T cells were seeded at 90% confluency in 12 well plates (353043, Falcon), left to attach for 1.5 h, followed by the compound treatment for 5 h. Primary and secondary antibodies used included anti-BRD4 at 1:1000 dilution (A301-985A-M, Bethyl Laboratories), anti-BRD2 at 1:2,000 dilution (A302-582A, Bethyl Laboratories), anti-BRD3 at 1:500 dilution (ab56342, Abcam), anti-GAPDH at 1:10,000 dilution (G8795, Sigma), IRDye680 Donkey anti-mouse at 1:10,000 dilution (926-68072, LiCor) and IRDye800 Goat anti-rabbit at 1:10,000 dilution (926-32211, LiCor).

[8] = biological target: T4, BRD2 (Homo sapiens, UniProt P25440); assay: Western blot of BRD2 in HEK293T cells; assay type: cell-based; conditions: immunoblot
T4 construct: endogenous in cells; host or cells: HEK293T
T4 sequence (P25440 whole entry): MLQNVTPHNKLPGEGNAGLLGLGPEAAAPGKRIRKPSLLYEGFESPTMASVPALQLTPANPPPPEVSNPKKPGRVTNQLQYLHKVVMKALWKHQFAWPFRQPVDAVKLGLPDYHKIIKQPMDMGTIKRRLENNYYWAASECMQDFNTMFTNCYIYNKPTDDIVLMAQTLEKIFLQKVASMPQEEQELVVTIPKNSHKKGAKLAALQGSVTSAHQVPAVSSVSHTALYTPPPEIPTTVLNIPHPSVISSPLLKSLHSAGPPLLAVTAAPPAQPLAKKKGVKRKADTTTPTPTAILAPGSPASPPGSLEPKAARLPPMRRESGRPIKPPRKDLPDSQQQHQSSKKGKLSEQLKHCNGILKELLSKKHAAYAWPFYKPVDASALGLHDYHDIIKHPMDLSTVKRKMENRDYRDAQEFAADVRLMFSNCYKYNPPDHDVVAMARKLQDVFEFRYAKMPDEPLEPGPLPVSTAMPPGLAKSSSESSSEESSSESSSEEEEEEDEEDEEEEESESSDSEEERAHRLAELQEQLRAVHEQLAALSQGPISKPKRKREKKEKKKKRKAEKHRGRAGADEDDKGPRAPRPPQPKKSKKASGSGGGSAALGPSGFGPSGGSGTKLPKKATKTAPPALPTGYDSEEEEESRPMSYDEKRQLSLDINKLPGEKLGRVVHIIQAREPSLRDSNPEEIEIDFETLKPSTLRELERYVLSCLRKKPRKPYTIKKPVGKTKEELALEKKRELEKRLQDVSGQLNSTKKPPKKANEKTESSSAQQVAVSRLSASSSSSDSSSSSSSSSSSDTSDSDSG
Protocol: as §3

[9] = biological target: T5, BRD3 (Homo sapiens, UniProt Q15059); assay: Western blot of BRD3 in HEK293T cells; assay type: cell-based; conditions: immunoblot
T5 construct: endogenous in cells; host or cells: HEK293T
T5 sequence (Q15059 whole entry): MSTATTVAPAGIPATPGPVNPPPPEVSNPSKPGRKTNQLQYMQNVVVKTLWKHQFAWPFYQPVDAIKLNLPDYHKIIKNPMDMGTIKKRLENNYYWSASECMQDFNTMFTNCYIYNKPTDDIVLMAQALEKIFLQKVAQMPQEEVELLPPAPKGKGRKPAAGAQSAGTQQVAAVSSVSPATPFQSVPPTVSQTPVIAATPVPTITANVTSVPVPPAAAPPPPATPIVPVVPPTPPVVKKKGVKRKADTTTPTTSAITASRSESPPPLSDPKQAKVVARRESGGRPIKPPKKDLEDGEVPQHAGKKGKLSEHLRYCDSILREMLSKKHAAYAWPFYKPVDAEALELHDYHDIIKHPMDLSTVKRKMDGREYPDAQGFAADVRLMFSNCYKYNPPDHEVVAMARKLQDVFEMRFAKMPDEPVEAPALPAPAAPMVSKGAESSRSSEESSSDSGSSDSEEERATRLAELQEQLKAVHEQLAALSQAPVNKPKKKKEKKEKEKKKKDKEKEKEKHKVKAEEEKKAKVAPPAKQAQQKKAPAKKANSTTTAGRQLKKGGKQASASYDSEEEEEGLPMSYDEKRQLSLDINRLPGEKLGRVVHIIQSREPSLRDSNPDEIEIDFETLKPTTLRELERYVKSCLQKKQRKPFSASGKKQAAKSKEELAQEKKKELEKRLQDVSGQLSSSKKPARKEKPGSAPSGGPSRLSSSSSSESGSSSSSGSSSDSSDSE
Protocol: as §3

[10] = tested on: DDB1ΔB-CRBN / BRD4BD1; assay: TR-FRET dimerization assay, CRBN with BRD4BD1 wild type and mutants (peak height); assay type: binding, human; conditions: BRD4BD1 Q84 mutated to R (as in BRD2) or K, reference to WT
Protocol: Before TR-FRET measurements were conducted, the reactions were incubated for 15 min at RT. […] The TR-FRET signal of each data point was extracted by calculating the 520/490 nm ratio. […] The peak height of TR-FRET dBET dose response data was calculated in GraphPad Prism 7 using Area Under Curve analysis for three independent replicates (n=3) and the mean peak height and standard deviation calculated.

[11] = biological target: T6, IKZF1Δ (Homo sapiens, UniProt Q13422+Q96SW2, DEL197-239); assay: IKZF1Δ-EGFP fusion protein cellular degradation assay; assay type: cell-based; conditions: HEK293T cells
T6 construct: expressed in transfected cells
T6 sequence (Q13422 with tags, fused parts or gaps DEL197-239): as the sequence (Q13422 with tags, fused parts or gaps DEL197-239) above
T6 sequence (Q96SW2 whole entry, stated change not applied, the tested form may be a part): as the sequence (Q96SW2 whole entry, stated change not applied) above
T6 sequence (Q16531 whole entry partner, the tested form may be a part): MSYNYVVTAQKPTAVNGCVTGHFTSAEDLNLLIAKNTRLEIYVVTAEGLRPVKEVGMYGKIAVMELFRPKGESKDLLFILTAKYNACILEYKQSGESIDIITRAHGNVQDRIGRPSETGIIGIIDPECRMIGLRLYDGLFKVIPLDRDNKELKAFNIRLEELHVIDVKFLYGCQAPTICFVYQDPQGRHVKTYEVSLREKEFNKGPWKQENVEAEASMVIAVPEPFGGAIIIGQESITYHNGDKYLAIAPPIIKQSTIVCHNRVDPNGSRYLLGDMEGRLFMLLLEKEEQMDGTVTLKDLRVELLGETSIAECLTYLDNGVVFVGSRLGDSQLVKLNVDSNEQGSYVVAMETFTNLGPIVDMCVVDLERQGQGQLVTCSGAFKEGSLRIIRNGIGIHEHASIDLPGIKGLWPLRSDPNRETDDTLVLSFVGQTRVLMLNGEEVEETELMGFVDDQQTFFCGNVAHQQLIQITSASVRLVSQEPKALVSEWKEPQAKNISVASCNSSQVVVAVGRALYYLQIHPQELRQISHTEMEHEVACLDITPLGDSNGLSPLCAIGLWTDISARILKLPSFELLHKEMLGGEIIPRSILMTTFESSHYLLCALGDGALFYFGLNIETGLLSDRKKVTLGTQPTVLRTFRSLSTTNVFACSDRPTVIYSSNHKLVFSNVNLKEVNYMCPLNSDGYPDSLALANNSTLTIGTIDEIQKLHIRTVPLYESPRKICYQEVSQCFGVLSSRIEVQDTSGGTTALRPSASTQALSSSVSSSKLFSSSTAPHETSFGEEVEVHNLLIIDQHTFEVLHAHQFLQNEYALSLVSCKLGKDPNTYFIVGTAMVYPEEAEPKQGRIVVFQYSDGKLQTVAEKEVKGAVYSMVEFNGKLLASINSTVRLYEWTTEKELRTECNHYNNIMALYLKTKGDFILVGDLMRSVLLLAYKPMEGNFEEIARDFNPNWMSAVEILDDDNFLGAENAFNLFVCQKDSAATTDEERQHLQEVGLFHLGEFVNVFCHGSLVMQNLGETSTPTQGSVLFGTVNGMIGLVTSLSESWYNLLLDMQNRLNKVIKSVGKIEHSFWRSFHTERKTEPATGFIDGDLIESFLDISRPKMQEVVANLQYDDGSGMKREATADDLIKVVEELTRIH
Protocol: as §1, with “Following 2-3 passage cycle FACS (FACSAria II, BD) was used to enrich for cells expressing eGFP and mCherry.” left out
as §2, with “The median of the ratio was then calculated per set, normalized to the median of the DMSO ratio, and is denoted as relative abundance.” left out

[12] = tested on: IKZF1, IKZF3 and ZFP91; assay: Quantitative proteomics (TMT LC-MS3) in MM.1s cells; assay type: cell-based, human; conditions: 1 μM, five hours
Protocol: A micro-BCA assay (Pierce) was used to determine the final protein concentration in the cell lysate. […] Proteins were precipitated using methanol/chloroform. In brief, four volumes of methanol were added to the cell lysate, followed by one volume of chloroform, and finally three volumes of water.

Cc1sc2c(c1C)C(c1ccc(Cl)cc1)=N[C@@H](CC(=O)OC(C)(C)C)c1nnc(C)n1-2 [JQ1]
relative affinity for BRD4BD1 and BRD4BD2 [1]: equal affinities

Cc1ncsc1-c1ccc(CNC(=O)[C@@H]2C[C@@H](O)CN2C(=O)[C@@H](NC(=O)COCCOCCOCCNC(=O)C[C@@H]2N=C(c3ccc(Cl)cc3)c3c(sc(C)c3C)-n3c(C)nnc32)C(C)(C)C)cc1 [MZ1, reference compound]
degradation activity across BET bromodomains [2]: activity on most bromodomains

Cc1sc2c(c1C)C(c1ccc(Cl)cc1)=N[C@@H](CC(=O)NCCOc1cccc3c1C(=O)N(C1CCC(=O)NC1=O)C3=O)c1nnc(C)n1-2 (stereo partly shown) [ZXH-2-42]
IKZF1-CRBN complex formation induced by compound [3]: greatly reduced compared to their nitrogen analogs

COC(=O)C[C@@H]1N=C(c2ccc(Cl)cc2)c2c(sc(C(=O)NCCCCCCCCOc3cccc4c3C(=O)N(C3CCC(=O)NC3=O)C4=O)c2C)-n2c(C)nnc21 (stereo partly shown) [ZXH-2-43]
IKZF1-CRBN complex formation induced by compound [3]: greatly reduced compared to their nitrogen analogs

COC(=O)C[C@@H]1N=C(c2ccc(Cl)cc2)c2c(sc(C(=O)NCCCCCCCCOc3ccc4c(c3)C(=O)N(C3CCC(=O)NC3=O)C4=O)c2C)-n2c(C)nnc21 (stereo partly shown) [ZXH-2-45]
IKZF1-CRBN complex formation induced by compound [3]: greatly reduced compared to their nitrogen analogs

COC(=O)C[C@@H]1N=C(c2ccc(Cl)cc2)c2c(sc(C(=O)NCCCCNc3cccc4c3C(=O)N(C3CCC(=O)NC3=O)C4=O)c2C)-n2c(C)nnc21 (stereo partly shown) [ZXH-2-184]
selectivity of BRD4 degradation over BRD2 and BRD3 [2]: selective degradation of BRD4; also recorded: selectively targets BRD4 for degradation and spares BRD2 and BRD3

COC(=O)C[C@@H]1N=C(c2ccc(Cl)cc2)c2c(sc(C(=O)NCCCCCNc3cccc4c3C(=O)N(C3CCC(=O)NC3=O)C4=O)c2C)-n2c(C)nnc21 (stereo partly shown) [ZXH-03-26]
degradation activity on BRD4BD1 [4]: active on BRD4BD1
DC50 ([4]; 5 h, read-out: DC50/5h (half-maximal degradation after 5 hours of treatment)): ~5 nM
concentrations at which degradation of BRD2 is spared [5]: > 10 µM
concentrations at which degradation of BRD3 is spared [6]: > 10 µM
selectivity of BRD4 degradation over BRD2 and BRD3 [2]: selectively targets BRD4 for degradation and spares BRD2 and BRD3
degradation activity across BET bromodomains [2]: activity exclusively on the first bromodomain of BRD4
degradation of endogenous BRD4 [7]: degrades endogenous BRD4 with comparable efficacy compared to the best pan-BET degrader dBET6
degradation of BRD2 [8]: inactive
degradation of BRD3 [9]: inactive
complex formation with CRBN (TR-FRET peak height) [10]: decreases complex formation with CRBN

Cc1sc2c(c1C)C(c1ccc(Cl)cc1)=N[C@@H](CC(=O)NCCCCCCCCNC(=O)COc1cccc3c1C(=O)N(C1CCC(=O)NC1=O)C3=O)c1nnc(C)n1-2 (stereo partly shown) [dBET6, reference compound]
IKZF1-CRBN complex formation induced by compound [3]: do not induce IKZF1-CRBN complex formation
cellular IKZF1 degradation [11]: relatively ineffective at promoting IKZF1 degradation

COC(=O)C[C@@H]1N=C(c2ccc(Cl)cc2)c2c(sc(C(=O)NCCCCCCCCNC(=O)COc3cccc4c3C(=O)N(C3CCC(=O)NC3=O)C4=O)c2C)-n2c(C)nnc21 (stereo partly shown) [dBET23]
co-degradation of CRBN-lenalidomide neo-substrates IKZF1, IKZF3 and ZFP91 [12]: not dBET23 exhibits pronounced co-degradation
